Numbering of substitutions follows the chain as printed.
How the values were obtained:
hCCR2b [1] = biological target: T1, hCCR2b (Homo sapiens, UniProt P41597); test: [3H]-CCR2-RA displacement assay, U2OS-CCR2 membranes; conditions: ratio of apparent Ki to Ki of compound 7
T1 sequence (P41597 1-360 isoform P41597-2): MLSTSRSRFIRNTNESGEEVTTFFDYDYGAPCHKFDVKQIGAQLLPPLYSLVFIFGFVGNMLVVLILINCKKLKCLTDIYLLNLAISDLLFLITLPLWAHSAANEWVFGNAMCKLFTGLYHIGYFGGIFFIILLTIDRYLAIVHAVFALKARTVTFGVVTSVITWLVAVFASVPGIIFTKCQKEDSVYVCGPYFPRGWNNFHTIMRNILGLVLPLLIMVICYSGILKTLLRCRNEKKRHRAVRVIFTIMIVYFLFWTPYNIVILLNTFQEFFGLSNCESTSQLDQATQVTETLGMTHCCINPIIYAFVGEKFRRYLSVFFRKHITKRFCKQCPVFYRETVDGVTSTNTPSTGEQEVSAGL

[2] = Stability under radioligand binding assay conditions; format: physicochemical
hCCR2b [3] = biological target: T1, hCCR2b; test: NanoBiT β-arrestin1 recruitment assay in live HEK293t cells; conditions: unwashed control vs [35S]GTPγS binding assay
[4] = biological target: T2, CCR2 triple mutant C70S/C75S/C232S (Homo sapiens, UniProt P41597, C232S/C70S/C75S); test: [3H]-CCR2-RA-[R] washout assay, CHO membranes, CCR2 triple mutant; conditions: 160 nM 14, four wash cycles
T2 sequence (P41597 1-360 isoform P41597-2 C70S/C75S/C232S): T1 sequence (P41597 1-360 isoform P41597-2) with C70S, C75S, C232S

SMILES | loss/reduction of affinity compared to compound 7 (hCCR2b [1]) | time compound remained intact in assay buffer ([2]; 25 μM, 50 mM Tris-HCl pH 7.4, 5 mM MgCl2, 0.1% CHAPS, room temperature, data not shown) | stability at higher concentration and temperature ([2]; 1 mM compound, 37 °C, over 4 h) | higher potency in β-arrestin recruitment than in [35S]GTPγS binding assay (hCCR2b [3]) | [3H]-CCR2-RA-[R] binding after washout [4]
O=C(NCCN=C=S)c1ccc(Oc2ccc(Cl)cc2NS(=O)(=O)c2ccc(Cl)c(C(F)(F)F)c2)cc1 [Compound 11, 4-(4-Chloro-2-((4-chloro-3-(trifluoromethyl)phenyl)sulfonamido)phenoxy)-N-(2-isothiocyanatoethyl)benzamide] | 5 fold |  |  |  | 
O=C(NCCNC(=O)c1ccc(S(=O)(=O)F)cc1)c1ccc(Oc2ccc(Cl)cc2NS(=O)(=O)c2ccc(Cl)c(C(F)(F)F)c2)cc1 [Compound 13, 4-((2-(4-(4-Chloro-2-((4-chloro-3-(trifluoromethyl)phenyl)sulfonamido)phenoxy)benzamido)ethyl)carbamoyl)benzenesulfonyl Fluoride] | 15 fold |  |  |  | 
N#CSCCNC(=O)c1ccc(Oc2ccc(Cl)cc2NS(=O)(=O)c2ccc(Cl)c(C(F)(F)F)c2)cc1 [Compound 14, 4-(4-Chloro-2-((4-chloro-3-(trifluoromethyl)phenyl)sulfonamido)phenoxy)-N-(2-thiocyanatoethyl)benzamide] |  | over 6 h | gradual degradation | 8 fold | recovered to levels comparable to compound 7
